Columns and labels:
[1] = system: SARS-CoV-2 Delta variant; assay: microbe, parasite or virus in culture; type: cell-based; details: Severe acute respiratory syndrome coronavirus 2, Vero C1008, 24 h, read-out: EC50 Delta variant replication
[2] = system: SARS-CoV-2 Omicron BA.1 variant; assay: microbe, parasite or virus in culture; type: cell-based; details: Severe acute respiratory syndrome coronavirus 2, Vero C1008, 24 h, read-out: EC50 Omicron BA.1 variant replication
[3] = system: SARS-CoV-2 delta variant; parameters: species or system K18-hACE2 mice; details: mouse, in vivo

## O=C(c1cc(=O)[nH]c2ccccc12)N1CCN(c2ccc(Cl)c(Cl)c2)CC1CN1CCOCC1 (centres unmarked) [JZD-07, 4-(4-(3,4-Dichlorophenyl)-2-(morpholinomethyl)piperazine-1-carbonyl)quinolin-2(1H)-one]
[1]
  EC50: 7.24 µM
[2]
  EC50: 6.03 µM
[3]
  immunohistochemistry staining of viral nucleocapsid protein in lungs: suppressed viral titer in mice lungs
  reduction of viral copy loads of the lung vs vehicle: ~1.0 log
  reduction of viral titers of the lung vs vehicle: 2.0 log

Reference: article PMC10201506 (Signal Transduction and Targeted Therapy, 2023)
